Experimental data as given in patent US12643906B2, “Fused aza-heterocyclic amide compound and use thereof” (CSPC ZHONGQI PHARMACEUTICAL TECHNOLOGY (SHIJIAZHUANG) CO., …, priority 2020, dated 2026).
Like-named read-outs stand apart in the source and are kept apart here.

Assays:
TRKB = biological target: T1, TRKB (Homo sapiens, UniProt Q16620); assay: HTRF kinase inhibition assay, TRKB; assay type: biochemical
T1 construct: purchased Bioduro
Procedure: (§1) The compound to be tested with a certain concentration gradient and an enzyme solution were successively added into a plate (kinase buffer (1× kinase buffer (Cisbio, Cat #62EZBFDD), pH 7.5; 5 mM MgCl2, 1 mM DTT) was added into negative control wells), and the compound plate was centrifuged at 1000 rpm for 30 seconds. The plate was sealed and incubated in a Constant Temperature Incubator at 25° C. for 30 min. A substrate solution containing TK-Sub-biotin (Cisbio, Cat #61TKOBL) and ATP (Sigma, Cat #R0441) was prepared, the substrate solution was added into a 384-well plate, and the plate was centrifuged at 1000 rpm for 30 seconds. The plate was sealed and incubated in a Constant Temperature Incubator at 25° C. for 60 min.
(§2) TK antibody and XL665 were diluted, mixed and added into the assay plate, and the plate was centrifuged at 1000 rpm for 30 seconds. The plate was sealed and incubated in a Constant Temperature incubator Incubator at 25° C. for 60 min. The assay plate was placed on an Envision reader for reading.
(§3) Data were fitted in XLFit excel add-in version 5.4.0.8 to obtain IC50 values.

TRKA(G595R) = biological target: T2, TRKA(G595R) (Homo sapiens, UniProt P04629, G595R); assay: HTRF kinase inhibition assay, TRKA(G595R); assay type: biochemical
T2 construct: purchased signalchem
Procedure: as §1
as §2, with “reading. (HTRF 665/615 ratio: signal value at 665 nm/signal value at 615 nm) Inhibition=(rationegative control well−ratiocompound well)/(rationegative control well−ratioenzyme-free control well)×100% 1.3 Data Analysis and Curve Fitting” for “reading.”
as §3

Ba/F3 ETV6-NTRK3-G696A = biological target: T3, Ba/F3 ETV6-NTRK3-G696A (Homo sapiens, UniProt Q16288, G696A, cells depend on it); assay: In vitro cell proliferation inhibition (MTT); assay type: cell-based, murine; details: 72 h, read-out: IC50 Ba/F3 ETV6-NTRK3-G696A
T3 construct: fused on or other part: P41212 (Transcription factor ETV6)
Procedure: • Source of 6 kinds of cell lines for the test: KYinno Biotechnology (Beijing) Co., Ltd. • Cell type: murine B cells • Culture medium: RPMI-1640+10% FB S 2. Test Method
Cells in the logarithmic growth phase were harvested and counted using a […]. The cell suspension with a certain density was pipetted uniformly and seeded into a 96-well plate with each well of 100 μL, and shaken to make the cells uniformly disperse into the wells. 100 μL of compound solution with certain concentration gradient was added into each well, and 3 duplicate wells were set for each concentration. The plate was cultured in a CO2 incubator at 37° C. for 72 h. 20 μL of MTT working solution (5 mg/mL) was added into each well, and the plate was placed at 37° C. for 4 h, and centrifuged at 1000 rpm for 5 min by a plate centrifuge. After 180 μL of culture medium was discarded, the plate was added with 150 μL of DMSO, and mixed well with a microplate shaker, the plate bottom was wiped, and optical density (OD) at 550 nm was detected with a microplate reader.

[1] = system: Ba/F3 LMNA-NTRK1-G595R model; details: gavage
Procedure: (§4) The cells in the logarithmic growth phase were collected and re-suspending in serum-free culture medium to make the cell concentration at […] cells/mL. The cell suspension was added with equal volume of Matrigel to make the final cell concentration at 3×10^7-5×10^7 cells/mL. The animal model was established by subcutaneously inoculating 0.1 mL of tumor cell suspension in the axilla of the forelimb of NuNu mice (female, 4-6 weeks, Beijing Vital River Laboratory Animal Technology Co., Ltd.) in an amount of 3×10^6-5×10^6 cells/mouse.
(§5) The maximum and the minimum tumor diameters of the xenografts in nude mice were measured using a vernier caliper, and the tumor volume (TV) was calculated according to the formula: V=½×a×b^2, where a and b represent the maximum and minimum diameters of the tumor mass, respectively. Nude mice with appropriate tumor volume were selected and the mice were evenly divided into 7 groups of 6 mice (100-200 mm^3) by tumor volume using a random number method.
(§6) Tumor diameters were measured twice weekly and tumor volume was calculated. […] (where Ti represents the mean tumor volume of a certain administration group on a certain day; TO represents the mean tumor volume of the administration group at the start of administration, Vi represents the mean tumor volume of the vehicle control group on a certain day (same day as Ti) and V0 represents the mean tumor volume of the vehicle control group at the start of administration); • Tumor inhibition rate: at the end of the test, the animals were executed by removing the cervical vertebrae.

[2] = system: Ba/F3 LMNA-NTRK1-G667C model; details: 100 mg/kg, gavage
Procedure: as §4, §5, §6

ALK = biological target: T4, ALK (Homo sapiens, UniProt Q9UM73); assay: Kinase inhibition assay with fluorescein labeled peptide, ALK; assay type: biochemical
T4 construct: purchased Carna 08-105
Procedure: (§7) Compounds were diluted to a certain concentration in DMSO with 4-fold gradients. The compound with a certain concentration, an enzyme solution and DMSO were added into a 384-well plate, and the plate was incubated at room temperature for 10 min. […] The plate was subjected to reading.

TRKC = biological target: T5, TRKC (Homo sapiens, UniProt Q16288); assay: HTRF kinase inhibition assay, TRKC; assay type: biochemical
T5 construct: purchased Bioduro
Procedure: as §1
as §2, with “reading. (HTRF 665/615 ratio: signal value at 665 nm/signal value at 615 nm) Inhibition=(rationegative control well−ratiocompound well)/(rationegative control well−ratioenzyme-free control well)×100% 1.3 Data Analysis and Curve Fitting” for “reading.”
as §3

TRKC(G623R) = biological target: T6, TRKC(G623R) (Homo sapiens, UniProt Q16288, G623R); assay: HTRF kinase inhibition assay, TRKC(G623R); assay type: biochemical
T6 construct: purchased Bioduro
Procedure: as §1
as §2, with “reading. (HTRF 665/615 ratio: signal value at 665 nm/signal value at 615 nm) Inhibition=(rationegative control well−ratiocompound well)/(rationegative control well−ratioenzyme-free control well)×100% 1.3 Data Analysis and Curve Fitting” for “reading.”
as §3

ROS1 = biological target: T7, ROS1 (Homo sapiens, UniProt P08922); assay: Kinase inhibition assay with fluorescein labeled peptide, ROS1; assay type: biochemical
T7 construct: purchased Carna 08-163
Procedure: as §7

T2 sequence (P04629 33-796 G595R): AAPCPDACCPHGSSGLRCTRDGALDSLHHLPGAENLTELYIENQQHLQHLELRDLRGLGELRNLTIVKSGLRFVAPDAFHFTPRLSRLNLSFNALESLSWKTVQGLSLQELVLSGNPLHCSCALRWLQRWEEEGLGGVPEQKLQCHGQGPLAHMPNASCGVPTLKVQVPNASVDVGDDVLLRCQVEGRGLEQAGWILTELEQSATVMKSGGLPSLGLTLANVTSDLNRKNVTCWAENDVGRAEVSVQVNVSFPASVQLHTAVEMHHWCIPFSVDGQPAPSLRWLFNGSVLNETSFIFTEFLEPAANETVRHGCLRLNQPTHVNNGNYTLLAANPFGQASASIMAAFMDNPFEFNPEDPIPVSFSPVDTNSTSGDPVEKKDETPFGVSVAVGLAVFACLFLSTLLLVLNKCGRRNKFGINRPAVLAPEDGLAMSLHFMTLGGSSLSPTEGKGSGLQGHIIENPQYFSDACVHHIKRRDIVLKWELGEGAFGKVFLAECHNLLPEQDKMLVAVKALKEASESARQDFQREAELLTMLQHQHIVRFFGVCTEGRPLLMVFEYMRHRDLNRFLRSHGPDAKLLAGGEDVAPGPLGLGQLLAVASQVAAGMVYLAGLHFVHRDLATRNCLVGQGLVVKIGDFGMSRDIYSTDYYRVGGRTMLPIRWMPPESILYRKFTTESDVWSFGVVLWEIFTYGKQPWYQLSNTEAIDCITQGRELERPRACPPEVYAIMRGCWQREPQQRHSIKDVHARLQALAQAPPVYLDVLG
T6 sequence (Q16288 32-839 G623R): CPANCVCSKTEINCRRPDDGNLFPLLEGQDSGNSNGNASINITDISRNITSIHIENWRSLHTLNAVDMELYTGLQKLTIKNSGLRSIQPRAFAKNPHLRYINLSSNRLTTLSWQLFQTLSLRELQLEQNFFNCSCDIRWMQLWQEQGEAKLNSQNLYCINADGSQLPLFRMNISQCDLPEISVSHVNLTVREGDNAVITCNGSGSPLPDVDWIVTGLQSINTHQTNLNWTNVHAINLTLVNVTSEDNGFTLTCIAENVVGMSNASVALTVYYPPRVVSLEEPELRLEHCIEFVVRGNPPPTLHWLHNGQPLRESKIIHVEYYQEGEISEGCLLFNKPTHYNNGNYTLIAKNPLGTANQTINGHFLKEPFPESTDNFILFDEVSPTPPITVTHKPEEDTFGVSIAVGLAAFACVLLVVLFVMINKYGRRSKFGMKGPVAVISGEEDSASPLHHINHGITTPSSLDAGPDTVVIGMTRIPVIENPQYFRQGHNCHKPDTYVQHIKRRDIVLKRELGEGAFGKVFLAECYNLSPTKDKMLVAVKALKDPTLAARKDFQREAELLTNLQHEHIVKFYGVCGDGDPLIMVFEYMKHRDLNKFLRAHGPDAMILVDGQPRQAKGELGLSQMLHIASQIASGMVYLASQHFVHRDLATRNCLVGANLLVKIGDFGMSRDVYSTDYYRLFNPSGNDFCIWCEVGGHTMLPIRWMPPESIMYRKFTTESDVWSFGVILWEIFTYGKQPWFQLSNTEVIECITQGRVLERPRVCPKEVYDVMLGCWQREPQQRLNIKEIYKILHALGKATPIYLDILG
T1 sequence (Q16620 32-822): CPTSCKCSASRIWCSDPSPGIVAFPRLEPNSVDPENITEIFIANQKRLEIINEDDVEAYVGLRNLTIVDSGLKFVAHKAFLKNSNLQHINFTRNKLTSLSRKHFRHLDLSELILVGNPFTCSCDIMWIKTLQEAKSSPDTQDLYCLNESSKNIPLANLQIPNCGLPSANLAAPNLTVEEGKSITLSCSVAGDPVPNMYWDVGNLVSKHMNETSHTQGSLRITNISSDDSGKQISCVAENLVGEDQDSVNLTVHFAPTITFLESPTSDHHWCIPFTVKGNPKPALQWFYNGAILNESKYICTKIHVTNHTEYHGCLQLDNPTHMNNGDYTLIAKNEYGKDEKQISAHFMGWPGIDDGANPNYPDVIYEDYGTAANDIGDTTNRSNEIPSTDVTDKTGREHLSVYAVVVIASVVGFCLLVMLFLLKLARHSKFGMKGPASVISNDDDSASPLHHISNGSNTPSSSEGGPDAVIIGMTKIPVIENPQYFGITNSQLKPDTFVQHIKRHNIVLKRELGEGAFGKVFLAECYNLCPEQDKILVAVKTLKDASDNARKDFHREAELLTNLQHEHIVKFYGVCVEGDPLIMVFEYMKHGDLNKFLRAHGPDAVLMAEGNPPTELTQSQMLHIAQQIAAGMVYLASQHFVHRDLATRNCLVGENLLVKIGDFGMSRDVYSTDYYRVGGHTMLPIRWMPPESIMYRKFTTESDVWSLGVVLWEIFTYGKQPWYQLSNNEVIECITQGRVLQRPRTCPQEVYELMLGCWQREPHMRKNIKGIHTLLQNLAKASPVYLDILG
T5 sequence (Q16288 32-839): as the sequence (Q16288 32-839 G623R) above, with R592G counted along it
T7 sequence (P08922 1883-2347 limits assumed): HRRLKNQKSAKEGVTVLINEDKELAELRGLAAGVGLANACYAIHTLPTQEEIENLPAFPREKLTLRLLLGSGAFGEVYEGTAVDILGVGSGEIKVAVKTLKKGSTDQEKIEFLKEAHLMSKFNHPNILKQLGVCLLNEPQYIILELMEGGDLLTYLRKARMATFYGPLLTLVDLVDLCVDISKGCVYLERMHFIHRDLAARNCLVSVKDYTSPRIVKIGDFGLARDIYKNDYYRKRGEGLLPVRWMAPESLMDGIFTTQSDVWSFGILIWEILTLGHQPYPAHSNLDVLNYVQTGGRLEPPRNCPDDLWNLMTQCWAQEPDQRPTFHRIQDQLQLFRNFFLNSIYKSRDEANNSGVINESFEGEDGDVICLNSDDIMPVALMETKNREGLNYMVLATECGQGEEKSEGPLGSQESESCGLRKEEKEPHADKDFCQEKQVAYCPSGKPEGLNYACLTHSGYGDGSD
T4 sequence (Q9UM73 1058-1620 limits assumed): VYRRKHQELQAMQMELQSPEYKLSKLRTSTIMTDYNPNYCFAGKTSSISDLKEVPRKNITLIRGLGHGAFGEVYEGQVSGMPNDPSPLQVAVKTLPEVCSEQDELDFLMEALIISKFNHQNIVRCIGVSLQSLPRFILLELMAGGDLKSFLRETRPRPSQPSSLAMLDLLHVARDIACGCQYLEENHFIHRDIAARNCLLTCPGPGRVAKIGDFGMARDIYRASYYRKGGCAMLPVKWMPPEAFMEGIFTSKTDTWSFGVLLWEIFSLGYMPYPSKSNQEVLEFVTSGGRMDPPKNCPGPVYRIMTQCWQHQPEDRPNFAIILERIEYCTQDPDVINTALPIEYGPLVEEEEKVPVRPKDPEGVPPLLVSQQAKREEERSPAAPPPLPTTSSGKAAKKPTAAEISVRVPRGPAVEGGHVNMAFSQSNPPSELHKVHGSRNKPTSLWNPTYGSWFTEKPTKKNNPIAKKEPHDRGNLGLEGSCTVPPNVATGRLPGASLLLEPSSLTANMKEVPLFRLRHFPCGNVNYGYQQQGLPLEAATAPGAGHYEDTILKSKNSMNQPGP
T3 sequence (Q16288 whole entry G696A, the tested form may be a part): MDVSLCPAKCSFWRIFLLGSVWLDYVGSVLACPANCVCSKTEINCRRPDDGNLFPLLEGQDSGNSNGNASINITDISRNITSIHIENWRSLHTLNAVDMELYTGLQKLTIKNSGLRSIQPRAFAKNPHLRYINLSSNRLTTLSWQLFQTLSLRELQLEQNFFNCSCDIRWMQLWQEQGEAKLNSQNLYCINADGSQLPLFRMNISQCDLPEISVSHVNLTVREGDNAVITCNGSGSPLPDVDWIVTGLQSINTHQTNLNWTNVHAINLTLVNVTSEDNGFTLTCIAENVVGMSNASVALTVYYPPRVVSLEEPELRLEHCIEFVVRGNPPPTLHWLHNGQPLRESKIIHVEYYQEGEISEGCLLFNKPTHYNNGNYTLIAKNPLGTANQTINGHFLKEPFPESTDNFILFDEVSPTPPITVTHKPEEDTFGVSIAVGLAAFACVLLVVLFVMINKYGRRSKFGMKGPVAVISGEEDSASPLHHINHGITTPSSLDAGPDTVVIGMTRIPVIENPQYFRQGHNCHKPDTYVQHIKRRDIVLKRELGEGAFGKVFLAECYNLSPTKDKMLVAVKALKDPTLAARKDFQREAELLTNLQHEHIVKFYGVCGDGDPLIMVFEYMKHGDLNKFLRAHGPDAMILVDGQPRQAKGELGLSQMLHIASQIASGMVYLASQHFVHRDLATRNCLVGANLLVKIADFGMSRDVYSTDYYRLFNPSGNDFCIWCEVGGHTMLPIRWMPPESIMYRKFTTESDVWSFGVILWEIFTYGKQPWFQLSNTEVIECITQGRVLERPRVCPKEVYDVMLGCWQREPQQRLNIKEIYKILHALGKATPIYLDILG

**Q.** Which results are given for `O=C(Nc1ccc(N2CCN(C(=O)CO)CC2)cc1)c1cnn2ccc(N3C[C@@H](F)C[C@@H]3c3cc(F)ccc3F)nc12` [Compound 4, 5-((2R,4S)-2-(2,5-difluorophenyl)-4-fluoropyrrolidin-1-yl)-N-(4-(4-(2-hydroxyacetyl)piperazin-1-yl)phenyl)pyrazolo[1,5-a]pyrimidine-3-carboxamide]?
**A.** IC50 (TRKB): 0.986 nM; IC50 (TRKA(G595R)): < 0.169 nM; GI50 (Ba/F3 ETV6-NTRK3-G696A): 0.466 nM; Number of animals (Survival/total) ([1]; 50 mg/kg): (6/6); Rate of weight gain (%) ([1]; 50 mg/kg): 10.66%; TGI (%) ([1]; 50 mg/kg): 136.9%; Tumor volume (mm^3) ([1]; 50 mg/kg): 15.7 ± 12.6 mm^3; Tumor weight ([1]; 50 mg/kg): 0.02 ± 0.01 g; Tumor weight inhibition rate (%) ([1]; 50 mg/kg): 96.16%; Number of animals (Survival/total) ([1]; 100 mg/kg): (6/6); Rate of weight gain (%) ([1]; 100 mg/kg): 8.32%; TGI (%) ([1]; 100 mg/kg): 138.0%; Tumor volume (mm^3) ([1]; 100 mg/kg): 11.3 ± 9.7 mm^3; Tumor weight ([1]; 100 mg/kg): 0.02 ± 0.01 g; Tumor weight inhibition rate (%) ([1]; 100 mg/kg): 96.83%; Number of animals (Survival/total) [2]: (6/6); Rate of weight gain (%) [2]: 8.16%; TGI (%) [2]: 84.0%; Tumor volume (mm^3) [2]: 197.5 ± 85.4 mm^3; Tumor weight [2]: 0.21 ± 0.08 g; Tumor weight inhibition rate (%) [2]: 61.17%; IC50 (ALK): 22 nM; IC50 (TRKC): 0.443 nM; IC50 (TRKC(G623R)): 0.205 nM; IC50 (ROS1): 0.19 nM
